Reference: US8415469B2, “Compounds and methods for kinase modulation, and indications therefor” (Plexxikon Inc., priority 2005, dated 2013)
Read-outs that look alike come from different tables or passages of the source.

Columns and labels:
Type in all cases: biochemical
B-Raf = biological target: T1, B-Raf (Homo sapiens, UniProt P15056); assay: AlphaScreen kinase assay, B-Raf
T1 construct: purchased Upstate Biotechnology

B-Raf V600E = biological target: T2, B-Raf V600E (Homo sapiens, UniProt P15056, V600E); assay: AlphaScreen kinase assay, B-Raf V600E
T2 construct: P4254. pFastBacBD-CDC37 BRAF D437-K722-X, V600E; His6 with pFastBac HT leader (TEV site) (N); made in house; host or cells: Sf9 (baculovirus; chaperone CDC37 co-expressed)

c-Raf-1 = biological target: T3, c-Raf-1 (Homo sapiens, UniProt P04049); assay: AlphaScreen kinase assay, c-Raf-1; details: read-out: IC50, activity toward kinase c-Raf-1
T3 construct: purchased Upstate Biotechnology

Fak = biological target: T4, Fak (Homo sapiens, UniProt Q05397); assay: AlphaScreen kinase assay, Fak; details: read-out: IC50, activity toward kinase Fak
T4 construct: P1358.pFastBacHtb FAK S411-Q686-X; His6 with pFastBacHTb leader (TEV site) (N); made in house; host or cells: Sf9 (baculovirus)

FGFR1 = biological target: T5, FGFR1 (Homo sapiens, UniProt P11362, C488A/C584S); assay: AlphaScreen kinase assay, FGFR1; details: read-out: IC50, activity toward kinase FGFR
T5 construct: P1351.pET N6 BI-PTP FGFR A458-E765-X C488A, C584S; made in house; host or cells: E. coli (PTP1B co-expressed)

Flt1 = biological target: T6, Flt1 (Homo sapiens, UniProt P17948); assay: AlphaScreen kinase assay, Flt1; details: read-out: IC50, activity toward kinase Flt1
T6 construct: P1826.pETN6 BI-PTP FLT1 M799-D1165-X WT; His6 (N); made in house; host or cells: E. coli (PTP1B co-expressed)
T6 sequence (P17948 with tags, fused parts or gaps): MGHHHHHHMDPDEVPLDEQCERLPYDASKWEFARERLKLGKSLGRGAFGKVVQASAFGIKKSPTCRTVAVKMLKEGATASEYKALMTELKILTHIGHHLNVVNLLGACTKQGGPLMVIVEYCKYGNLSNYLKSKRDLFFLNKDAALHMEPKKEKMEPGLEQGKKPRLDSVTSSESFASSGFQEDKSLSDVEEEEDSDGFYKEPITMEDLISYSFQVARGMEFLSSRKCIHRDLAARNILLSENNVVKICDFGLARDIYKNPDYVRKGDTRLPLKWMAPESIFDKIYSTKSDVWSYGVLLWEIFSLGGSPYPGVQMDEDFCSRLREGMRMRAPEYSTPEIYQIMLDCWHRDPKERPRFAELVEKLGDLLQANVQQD

Fms = biological target: T7, Fms (Homo sapiens, UniProt P07333); assay: AlphaScreen kinase assay, Fms; details: read-out: IC50, activity toward kinase Fms
T7 construct: purchased Upstate Biotechnology

Jnk1 = biological target: T8, Jnk1 (Homo sapiens, UniProt P45983); assay: AlphaScreen kinase assay, Jnk1; details: read-out: IC50, activity toward kinase Jnk1
T8 construct: purchased Upstate Biotechnology

Jnk3 = biological target: T9, Jnk3 (Homo sapiens, UniProt P53779); assay: AlphaScreen kinase assay, Jnk3; details: read-out: IC50, activity toward kinase Jnk3
T9 construct: purchased Upstate Biotechnology

Kit = biological target: T10, Kit (Homo sapiens, UniProt P10721); assay: AlphaScreen kinase assay, Kit; details: read-out: IC50, activity toward kinase Kit
T10 construct: P1332.N6 BI PTP KIT M552-K948-X COD; His6 (N); made in house; host or cells: E. coli (PTP1B co-expressed)

Met = biological target: T11, Met (Homo sapiens, UniProt P08581); assay: AlphaScreen kinase assay, Met; details: read-out: IC50, activity toward kinase Met
T11 construct: P1818.pETN6 BI-PTP MET G1056-G1364-X WT; His6 (N); made in house; host or cells: E. coli (PTP1B co-expressed)
From the text: (§1) AlphaScreen assay was used to screen additional kinases. The assay is similarly dependent on the phosphorylation of a peptide substrate. In this assay, an antibody that recognizes phosphorylated substrate is bound to an acceptor bead. The peptide substrate is attached to biotin, which binds to a donor head that contains streptavidin. Thus phosphorylated substrate is bound by antibody and streptavidin, bringing the donor and acceptor heads into close proximity when kinase is not inhibited. The donor produces singlet oxygen which results in emission from the acceptor when they are in close proximity. Conversely, when kinase is inhibited, the donor and acceptor beads are not associated and the emission from the acceptor is reduced.
(§2) AlphaScreen assays were done using compounds dissolved in DMSO to a concentration of 20 mM. The compounds were diluted accordingly to the desired final concentrations in each sample well, using 1:3 serial dilution for a total of 8 concentration points.

Ret = biological target: T12, Ret (Homo sapiens, UniProt P07949); assay: AlphaScreen kinase assay, Ret; details: read-out: IC50, activity toward kinase Ret
T12 construct: P1378.pET-SF BI-PTP RET H661-R1012 HIS; made in house
T12 sequence (P07949 with tags, fused parts or gaps): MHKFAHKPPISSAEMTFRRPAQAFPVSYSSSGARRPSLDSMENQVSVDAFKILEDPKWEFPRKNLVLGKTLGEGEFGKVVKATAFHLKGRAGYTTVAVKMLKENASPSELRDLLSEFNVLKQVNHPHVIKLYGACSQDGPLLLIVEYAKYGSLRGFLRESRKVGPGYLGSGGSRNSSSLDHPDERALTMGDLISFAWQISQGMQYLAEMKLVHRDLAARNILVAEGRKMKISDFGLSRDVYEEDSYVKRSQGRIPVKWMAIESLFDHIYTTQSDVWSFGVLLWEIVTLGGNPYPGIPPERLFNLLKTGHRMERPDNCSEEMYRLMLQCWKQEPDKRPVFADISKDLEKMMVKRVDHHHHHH

Src = biological target: T13, Src (Homo sapiens, UniProt P12931); assay: AlphaScreen kinase assay, Src; details: read-out: IC50, activity toward kinase Src
T13 construct: P1144. pET-N6 BI-PTP SRC V86-L536-X; made in house

Zap70 = biological target: T14, Zap70 (Homo sapiens, UniProt P43403); assay: AlphaScreen kinase assay, Zap70; details: read-out: IC50, activity toward kinase Zap70
T14 construct: P1868.pFastBac1 ZAP70 D327-G606 HIS, WT; His7 (HHHHHHH) (C); made in house
T14 sequence (P43403 with tags, fused parts or gaps): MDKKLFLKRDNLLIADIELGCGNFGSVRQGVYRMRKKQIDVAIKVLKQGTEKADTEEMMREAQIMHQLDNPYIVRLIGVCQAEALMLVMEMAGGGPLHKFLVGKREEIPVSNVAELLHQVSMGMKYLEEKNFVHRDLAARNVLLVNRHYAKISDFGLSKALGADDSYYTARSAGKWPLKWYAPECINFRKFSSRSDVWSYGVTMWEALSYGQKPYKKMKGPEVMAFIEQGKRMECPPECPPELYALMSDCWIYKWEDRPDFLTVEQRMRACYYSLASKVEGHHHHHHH
How it was run: (§3)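 Compounds in DMSO (20 mM stock) were diluted 1:3 across 8 points. Each kinase phosphorylated a biotin-labelled peptide. Signal generated when donor and acceptor beads came close via antibody binding of phosphorylated substrate.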

Akt3 = Akt3 (Homo sapiens, UniProt Q9Y243); assay: AlphaScreen kinase assay, Akt3; details: read-out: IC50, activity toward kinase Akt3
From the text: as §1, §2

Abl = biological target: T15, Abl (Homo sapiens, UniProt P00519); assay: AlphaScreen kinase assay, Abl; details: read-out: activity toward kinase Abl, IC50
T15 construct: P1121. pET-SPEC BI-PTP Abl G227-V515-X; His6 (N); made in house; host or cells: E. coli (PTP1B co-expressed)
T15 sequence (P00519 with tags, fused parts or gaps): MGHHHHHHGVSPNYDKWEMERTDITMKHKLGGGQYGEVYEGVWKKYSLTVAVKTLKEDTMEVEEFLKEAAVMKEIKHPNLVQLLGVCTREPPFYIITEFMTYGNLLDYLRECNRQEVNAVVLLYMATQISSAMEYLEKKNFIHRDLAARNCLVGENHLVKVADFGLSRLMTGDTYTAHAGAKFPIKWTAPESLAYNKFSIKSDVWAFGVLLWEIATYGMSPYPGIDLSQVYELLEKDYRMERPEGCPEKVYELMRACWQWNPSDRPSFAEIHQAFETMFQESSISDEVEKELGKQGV
From the text: as §1, §2

Jnk2 = biological target: T16, Jnk2 (Homo sapiens, UniProt P45984); assay: AlphaScreen kinase assay, Jnk2; details: read-out: IC50, activity toward kinase Jnk2
T16 construct: purchased Roche Protein Expression Group (Indianapolis, IN)
How it was run: as §3

Kdr = biological target: T17, Kdr (Homo sapiens, UniProt P35968); assay: Z'-Lyte FRET kinase assay (Invitrogen), Kdr; details: read-out: IC50, activity toward kinase Kdr
T17 construct: purchased Invitrogen (assay run by Invitrogen)

Stk6 = biological target: T18, Stk6 (Homo sapiens, UniProt O14965); assay: Z'-Lyte FRET kinase assay (Invitrogen), Stk6; details: read-out: IC50, activity toward kinase Stk6
T18 construct: purchased Invitrogen (Carlsbad, Calif.), screening service
T18 sequence (O14965 1-403): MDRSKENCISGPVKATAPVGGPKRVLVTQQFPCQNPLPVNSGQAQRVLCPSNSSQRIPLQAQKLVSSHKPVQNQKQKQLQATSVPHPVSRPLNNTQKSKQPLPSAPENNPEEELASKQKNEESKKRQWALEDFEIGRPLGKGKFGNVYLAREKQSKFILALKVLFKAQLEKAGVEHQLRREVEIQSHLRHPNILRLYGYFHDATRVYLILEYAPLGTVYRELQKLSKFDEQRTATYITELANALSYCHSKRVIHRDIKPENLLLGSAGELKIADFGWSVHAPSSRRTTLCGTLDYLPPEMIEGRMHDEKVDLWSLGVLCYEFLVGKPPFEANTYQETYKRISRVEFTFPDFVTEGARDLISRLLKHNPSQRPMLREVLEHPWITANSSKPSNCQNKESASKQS

Pyk2 = biological target: T19, Pyk2 (Homo sapiens, UniProt Q14289); assay: AlphaScreen kinase assay, Pyk2; details: read-out: IC50, activity toward kinase Pyk2
T19 construct: purchased Upstate Biotechnology

MAP4K4 = MAP4K4 (Homo sapiens, UniProt O95819); assay: AlphaScreen kinase assay, MAP4K4; details: read-out: IC50, activity toward kinase MAP4K4
[1] = read-out: IC50, activity toward kinase B-Raf
[2] = read-out: IC50, activity toward kinase B-Raf V600E

T17 sequence (P35968 20-1356): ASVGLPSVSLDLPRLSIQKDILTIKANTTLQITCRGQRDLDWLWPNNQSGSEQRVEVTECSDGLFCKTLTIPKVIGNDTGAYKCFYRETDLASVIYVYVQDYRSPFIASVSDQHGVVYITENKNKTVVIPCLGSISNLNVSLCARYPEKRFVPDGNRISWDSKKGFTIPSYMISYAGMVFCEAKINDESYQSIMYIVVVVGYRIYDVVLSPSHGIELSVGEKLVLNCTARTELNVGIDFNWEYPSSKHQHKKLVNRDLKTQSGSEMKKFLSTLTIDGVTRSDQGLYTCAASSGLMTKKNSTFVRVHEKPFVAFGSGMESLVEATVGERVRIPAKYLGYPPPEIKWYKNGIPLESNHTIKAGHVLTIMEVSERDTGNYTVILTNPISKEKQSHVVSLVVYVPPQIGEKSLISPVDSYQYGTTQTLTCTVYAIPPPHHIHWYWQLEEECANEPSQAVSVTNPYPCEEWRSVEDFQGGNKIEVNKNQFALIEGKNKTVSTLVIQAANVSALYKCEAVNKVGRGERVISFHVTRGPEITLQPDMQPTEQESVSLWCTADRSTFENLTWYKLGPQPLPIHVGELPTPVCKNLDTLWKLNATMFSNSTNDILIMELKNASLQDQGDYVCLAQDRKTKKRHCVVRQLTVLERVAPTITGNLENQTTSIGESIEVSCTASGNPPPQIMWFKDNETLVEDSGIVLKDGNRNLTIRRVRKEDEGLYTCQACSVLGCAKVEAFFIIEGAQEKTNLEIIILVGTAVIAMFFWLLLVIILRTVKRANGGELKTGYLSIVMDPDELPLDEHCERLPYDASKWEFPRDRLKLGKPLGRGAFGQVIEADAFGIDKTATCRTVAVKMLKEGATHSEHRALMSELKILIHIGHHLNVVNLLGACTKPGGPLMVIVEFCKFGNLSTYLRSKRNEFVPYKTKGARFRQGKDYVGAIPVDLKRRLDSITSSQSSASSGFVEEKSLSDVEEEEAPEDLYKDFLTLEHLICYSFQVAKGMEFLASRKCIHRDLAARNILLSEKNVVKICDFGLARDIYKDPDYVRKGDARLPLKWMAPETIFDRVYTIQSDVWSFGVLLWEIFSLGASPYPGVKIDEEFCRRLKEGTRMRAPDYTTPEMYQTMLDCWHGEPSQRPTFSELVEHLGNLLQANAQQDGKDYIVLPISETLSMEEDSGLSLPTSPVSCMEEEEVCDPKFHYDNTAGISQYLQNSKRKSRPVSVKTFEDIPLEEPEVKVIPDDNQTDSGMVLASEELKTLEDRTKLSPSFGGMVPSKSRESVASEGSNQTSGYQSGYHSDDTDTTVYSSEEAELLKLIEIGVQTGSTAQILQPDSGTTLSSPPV
T2 sequence (P15056 with tags, fused parts or gaps V600E): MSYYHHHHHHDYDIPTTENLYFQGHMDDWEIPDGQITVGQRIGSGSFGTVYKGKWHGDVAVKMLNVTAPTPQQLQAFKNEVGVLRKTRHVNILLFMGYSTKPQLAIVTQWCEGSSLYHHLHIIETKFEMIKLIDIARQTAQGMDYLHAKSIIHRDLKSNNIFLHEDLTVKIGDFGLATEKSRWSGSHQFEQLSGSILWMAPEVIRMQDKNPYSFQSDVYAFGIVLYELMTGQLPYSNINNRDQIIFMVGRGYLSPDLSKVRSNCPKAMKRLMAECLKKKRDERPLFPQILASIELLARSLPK
T10 sequence (P10721 with tags, fused parts or gaps): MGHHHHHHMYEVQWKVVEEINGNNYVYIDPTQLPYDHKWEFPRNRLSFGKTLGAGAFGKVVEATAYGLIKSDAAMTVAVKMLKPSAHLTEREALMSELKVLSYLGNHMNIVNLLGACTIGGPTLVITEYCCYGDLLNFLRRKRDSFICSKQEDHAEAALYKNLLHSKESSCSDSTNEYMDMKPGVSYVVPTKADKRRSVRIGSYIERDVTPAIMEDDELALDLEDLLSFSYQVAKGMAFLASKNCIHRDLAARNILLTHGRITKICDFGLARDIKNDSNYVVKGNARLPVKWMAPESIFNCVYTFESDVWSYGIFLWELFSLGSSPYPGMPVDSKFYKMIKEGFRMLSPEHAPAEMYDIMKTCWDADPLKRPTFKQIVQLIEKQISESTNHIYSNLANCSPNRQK
T9 sequence (P53779 whole entry): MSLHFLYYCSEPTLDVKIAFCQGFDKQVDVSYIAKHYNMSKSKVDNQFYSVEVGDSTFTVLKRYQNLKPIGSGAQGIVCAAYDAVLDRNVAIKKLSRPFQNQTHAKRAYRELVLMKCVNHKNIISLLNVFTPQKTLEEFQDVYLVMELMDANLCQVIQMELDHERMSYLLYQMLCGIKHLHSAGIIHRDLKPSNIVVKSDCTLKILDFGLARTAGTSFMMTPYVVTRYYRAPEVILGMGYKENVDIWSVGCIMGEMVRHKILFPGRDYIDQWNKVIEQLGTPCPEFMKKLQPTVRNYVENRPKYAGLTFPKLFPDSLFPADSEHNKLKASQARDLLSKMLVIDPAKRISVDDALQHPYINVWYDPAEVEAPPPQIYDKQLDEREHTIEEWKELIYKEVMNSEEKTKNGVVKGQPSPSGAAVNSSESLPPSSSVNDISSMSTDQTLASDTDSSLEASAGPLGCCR
T13 sequence (P12931 with tags, fused parts or gaps): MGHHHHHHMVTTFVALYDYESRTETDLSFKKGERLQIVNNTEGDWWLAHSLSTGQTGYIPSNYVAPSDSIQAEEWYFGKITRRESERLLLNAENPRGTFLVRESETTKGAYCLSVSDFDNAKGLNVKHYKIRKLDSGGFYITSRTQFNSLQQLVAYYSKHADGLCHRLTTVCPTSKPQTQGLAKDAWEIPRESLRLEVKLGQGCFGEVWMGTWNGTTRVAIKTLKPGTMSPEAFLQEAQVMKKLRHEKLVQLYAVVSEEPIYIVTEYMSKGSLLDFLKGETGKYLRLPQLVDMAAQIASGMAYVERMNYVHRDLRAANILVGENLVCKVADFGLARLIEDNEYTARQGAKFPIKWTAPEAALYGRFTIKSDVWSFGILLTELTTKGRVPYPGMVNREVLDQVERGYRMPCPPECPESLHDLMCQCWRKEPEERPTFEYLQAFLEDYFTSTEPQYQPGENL
T1 sequence (P15056 whole entry): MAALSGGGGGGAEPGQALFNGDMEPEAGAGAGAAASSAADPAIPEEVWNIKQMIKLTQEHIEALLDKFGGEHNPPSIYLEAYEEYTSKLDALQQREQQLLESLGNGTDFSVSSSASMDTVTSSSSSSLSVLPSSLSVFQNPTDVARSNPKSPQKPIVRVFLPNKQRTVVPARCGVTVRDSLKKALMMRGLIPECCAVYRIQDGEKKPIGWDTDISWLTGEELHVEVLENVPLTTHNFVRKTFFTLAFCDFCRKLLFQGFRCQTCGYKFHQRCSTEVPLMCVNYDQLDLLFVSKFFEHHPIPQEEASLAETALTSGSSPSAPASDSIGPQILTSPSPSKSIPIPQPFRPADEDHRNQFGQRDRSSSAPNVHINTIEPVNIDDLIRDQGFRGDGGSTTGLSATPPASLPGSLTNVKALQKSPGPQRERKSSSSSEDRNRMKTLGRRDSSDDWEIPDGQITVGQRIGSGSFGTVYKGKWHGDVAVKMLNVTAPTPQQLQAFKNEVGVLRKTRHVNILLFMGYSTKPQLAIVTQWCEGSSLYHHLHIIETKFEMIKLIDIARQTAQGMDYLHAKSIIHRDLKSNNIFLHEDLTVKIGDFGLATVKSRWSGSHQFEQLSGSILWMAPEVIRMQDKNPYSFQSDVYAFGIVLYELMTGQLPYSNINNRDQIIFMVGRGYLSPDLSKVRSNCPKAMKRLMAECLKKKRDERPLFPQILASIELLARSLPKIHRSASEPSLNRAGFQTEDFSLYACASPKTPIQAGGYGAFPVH
T8 sequence (P45983 whole entry): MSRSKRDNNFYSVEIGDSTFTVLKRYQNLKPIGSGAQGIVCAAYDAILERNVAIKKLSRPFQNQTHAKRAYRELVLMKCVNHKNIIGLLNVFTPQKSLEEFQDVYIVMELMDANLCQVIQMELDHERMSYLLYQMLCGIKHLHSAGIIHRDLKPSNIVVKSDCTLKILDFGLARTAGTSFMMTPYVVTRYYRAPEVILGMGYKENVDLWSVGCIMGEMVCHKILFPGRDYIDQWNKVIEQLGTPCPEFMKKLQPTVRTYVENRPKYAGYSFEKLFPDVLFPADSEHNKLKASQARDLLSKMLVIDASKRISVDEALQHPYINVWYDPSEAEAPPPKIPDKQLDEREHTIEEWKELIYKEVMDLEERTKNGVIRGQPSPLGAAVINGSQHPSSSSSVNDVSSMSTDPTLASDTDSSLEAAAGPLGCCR
T4 sequence (Q05397 411-686): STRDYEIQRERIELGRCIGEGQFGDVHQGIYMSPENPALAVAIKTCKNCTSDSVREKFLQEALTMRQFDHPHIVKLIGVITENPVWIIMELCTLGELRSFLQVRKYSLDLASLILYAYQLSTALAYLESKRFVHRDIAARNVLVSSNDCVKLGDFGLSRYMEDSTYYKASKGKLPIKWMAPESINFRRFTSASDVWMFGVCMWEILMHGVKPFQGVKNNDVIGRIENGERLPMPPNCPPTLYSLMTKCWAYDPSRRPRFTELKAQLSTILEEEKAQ
T11 sequence (P08581 with tags, fused parts or gaps): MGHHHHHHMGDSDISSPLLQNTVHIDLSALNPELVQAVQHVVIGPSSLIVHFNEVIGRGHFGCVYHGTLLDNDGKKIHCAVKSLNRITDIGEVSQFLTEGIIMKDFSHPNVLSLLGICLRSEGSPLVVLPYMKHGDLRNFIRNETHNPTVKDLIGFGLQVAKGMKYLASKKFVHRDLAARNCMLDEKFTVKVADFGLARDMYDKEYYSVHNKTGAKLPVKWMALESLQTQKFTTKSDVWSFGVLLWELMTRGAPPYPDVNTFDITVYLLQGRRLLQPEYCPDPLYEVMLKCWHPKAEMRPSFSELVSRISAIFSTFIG

SMILES | IC50 (B-Raf V600E; [2]) [µM] | IC50 (Fak) [µM] | IC50 (FGFR1) [µM] | IC50 (Flt1) [µM] | IC50 (Jnk1) [µM] | IC50 (Jnk3) [µM] | IC50 (Kit) [µM] | IC50 (Met) [µM] | IC50 (Ret) [µM] | IC50 (Src) [µM] | IC50 (Zap70) [µM] | IC50 (Abl) [µM] | IC50 (Kdr) [µM] | further results
NC(=O)c1cccc(-c2cnc3[nH]cc(C(=O)c4cc(O)ccc4F)c3c2)c1 [Compound P-0037, 3-[3-(2-Fluoro-5-hydroxy-benzoyl)-1H-pyrrolo[2,3-b]pyridin-5-yl]-benzamide] | ≤ 10 | ≤ 10 | ≤ 10 | ≤ 10 | ≤ 10 | ≤ 10 | ≤ 10 | ≤ 10 | ≤ 10 | ≤ 10 | ≤ 10 |  |  | IC50 (B-Raf; [1]): ≤ 10 µM; IC50 (c-Raf-1): ≤ 10 µM; IC50 (Fms): ≤ 10 µM; IC50 (Akt3): ≤ 10 µM
COc1cccc(Cc2c[nH]c3ncc(-c4ccc(N)cc4)cc23)c1 [Compound P-0140] |  |  | ≤ 10 |  | ≤ 10 |  | ≤ 10 | ≤ 10 | ≤ 10 |  |  | ≤ 10 | ≤ 10 | IC50 (B-Raf): ≤ 10 µM; IC50 (B-Raf V600E): ≤ 10 µM; IC50 (Jnk2): ≤ 10 µM; IC50 (Stk6): ≤ 10 µM
COc1cccc(Cc2c[nH]c3ncc(-c4cccnc4)cc23)c1F [Compound P-0269, 3-(2-Fluoro-3-methoxy-benzyl)-5-pyridin-3-yl-1H-pyrrolo[2,3-b]pyridine] | ≤ 10 | ≤ 10 | ≤ 10 | ≤ 10 | ≤ 10 | ≤ 10 | ≤ 10 | ≤ 10 | ≤ 10 | ≤ 10 |  |  | ≤ 10 | IC50 (B-Raf; [1]): ≤ 10 µM; IC50 (c-Raf-1): ≤ 10 µM; IC50 (Fms): ≤ 10 µM; IC50 (Jnk2): ≤ 10 µM; IC50 (Pyk2): ≤ 10 µM; IC50 (Stk6): ≤ 10 µM; IC50 (MAP4K4): ≤ 10 µM

Second part, led by results:

IC50 (B-Raf V600E; [2]) [µM] | IC50 (Fak) [µM] | IC50 (FGFR1) [µM] | IC50 (Flt1) [µM] | IC50 (Jnk1) [µM] | IC50 (Jnk3) [µM] | IC50 (Kit) [µM] | IC50 (Met) [µM] | IC50 (Ret) [µM] | IC50 (Src) [µM] | IC50 (Zap70) [µM] | IC50 (Abl) [µM] | IC50 (Kdr) [µM] | SMILES | further results
≤ 10 |  | ≤ 10 | ≤ 10 |  | ≤ 10 |  | ≤ 10 | ≤ 10 | ≤ 10 | ≤ 10 | ≤ 10 | ≤ 10 | O=S(=O)(NCc1c[nH]c2ncccc12)c1ccsc1 [Compound P-0320] | IC50 (Pyk2): ≤ 10 µM
 | ≤ 10 |  |  |  | ≤ 10 |  | ≤ 10 | ≤ 10 |  | ≤ 10 | ≤ 10 |  | CS(=O)(=O)CCNC(=O)c1ccc(S(=O)(=O)NCc2c[nH]c3ncccc23)cc1 [Compound P-0675] | 
 |  |  |  |  |  |  | ≤ 10 |  |  |  | ≤ 10 |  | S=C(NCc1ccncc1)NCc1c[nH]c2ncccc12 [Compound P-0781] | 
 |  |  |  |  |  |  | ≤ 10 |  |  |  | ≤ 10 |  | S=C(NCc1cccnc1)NCc1c[nH]c2ncccc12 [Compound P-1012] | 
